The target of series [1] is T1, γ-secretase (Notch cleavage activity) (Homo sapiens, UniProt P49768).
T1 construct: endogenous in cells; host or cells: SUP-T1 cells
Nature of the series: Cleaved Notch1 Sandwich ELISA (SUP-T1 cell line). Format: cell-based. The note with it: for IC50: SUP-T1 cells, 16 h; for Notch Elisa/Aβ42: ratio Notch Elisa IC50 to Aβ42 IC50. The method, boiled down:
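SUP-T1 cells endogenously express a truncated Notch fragment that serves as γ-secretase substrate. Cells at 1.0×10^6 cells/mL in RPMI-1640 with 10% FBS were treated 16 h with serially diluted compounds in DMSO. Cleaved Notch intracellular domain was quantified by sandwich ELISA on equal protein amounts.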

In series [2] the target is T2, γ-secretase (cleavage of APP, Aβ42) (Homo sapiens, UniProt P49768).
T2 construct: endogenous in cells; host or cells: HEK AP-GL-T16 luciferase reporter cells (tetracycline-induced APP substrate)
Nature of the series: Aβ (1-42) cellular assay (Aβ ELISA, HEK AP-GL-T1 6 cells). The class given is cell-based. Particulars: cellular Aβ42 ELISA, 24 h compound treatment. The method, boiled down:
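HEK AP-GL-T1 6 cells, with APP processing induced by tetracycline at compound addition 24 h post-plating. After 24 h of treatment, Aβ42 in conditioned medium (protease inhibitors added, frozen) was quantified by fluorometric sandwich ELISA (ex 460/em 560 nm) against an Aβ peptide standard curve.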

The target in series [3] is T3, γ-secretase (cleavage of Notch) (Homo sapiens, UniProt P49768).
T3 construct: endogenous in cells; host or cells: U2OS luciferase reporter cells with Tet-on Notch
The series can be described thus: Notch cellular assay (luciferase reporter U2OS cells). Format: cell-based. Particulars: for IC50: U2OS luciferase reporter cells; for Notch Luc/Aβ42: ratio Notch luciferase IC50 to Aβ42 IC50. Here is the method: This assay was used to determine if the compounds of interest inhibit the cleavage of Notch by γ-secretase in cells. A U2OS cell line in which the luciferase expression is adjusted by active Notch was used in this assay Notch expression is adjusted using Tet-on promoter. Luciferase reporter U2OS cells are plated at 1000 cells/well in 96 well plates in DMEM containing 100 μg/mL hygromycin, 15 μg/mL blasticidin and 1 μg/mL Tetracycline. Compounds were added 24 h after plating and the cells are lysed 6 days after adding compounds. Luciferase expression was performed using Steady-Glo Luciferase Assay System (Promega).

Molecules are shown by their SMILES. Values joined by “and” are separate entries in the source; they are usually repeats but may differ in a detail not shown here. Identical values can stand only once.

For `CC1CCCCC1N(Cc1ccc(C(=O)O)cc1)S(=O)(=O)c1ccc(Cl)cc1` (stereo not shown) [Example 3, 4-((4-Chloro-N-(2-methylcyclohexyl)phenylsulfonamido)methyl)benzoic acid], the melting point was 180 to 182 °C. In addition, in series [1], the IC50 was 0.35 µM and the “Notch Elisa/Aβ42” value was 45. Moreover, the IC50 in series [2] is 0.007 µM and 0.0127 µM and 0.0038 µM. Also, in series [3], the IC50 is 5 µM and 4.4 µM and 4.3 µM; the “Notch Luc/Aβ42” value was determined as 585.
Turning to `CC1CCCCC1N(Cc1ccc(C(=O)N[C@@H](C)CO)cc1)S(=O)(=O)c1ccc(Cl)cc1` (stereo partly drawn) [Example 5, 4-((4-Chloro-N-(2-methylcyclohexyl)phenylsulfonamido)methyl)-N—((S)-1-hydroxypropan-2-yl)benzamide], the melting point lay in the range of 95 to 97 °C. Moreover, in series [1], the IC50 is 0.16 µM and the “Notch Elisa/Aβ42” value is 110. In addition, the IC50 in series [2] was 0.0011 µM and 0.0018 µM. Moreover, in series [3], the IC50 was 2.3 µM and the “Notch Luc/Aβ42” value is 1586.
`CC1CCCCC1N(Cc1ccc(C(=O)NCCO)cc1)S(=O)(=O)c1ccc(Cl)cc1` (stereo not shown) [Example 6, 4-((4-Chloro-N-(2-methylcyclohexyl)phenylsulfonamido)methyl)-N-(2-hydroxyethyl)benzamide] returned a melting point of 105 to 107 °C. In series [1], half-maximal inhibition (IC50) required 0.13 µM and the “Notch Elisa/Aβ42” value is listed as 157. Further, in series [2], it took 0.00083 µM to reach half-maximal inhibition (IC50). For the same compound, in series [3], inhibition was half-maximal at 0.99 µM (IC50) and the “Notch Luc/Aβ42” value stood at 1192.
Compound `CC[C@@H](C1CCCCC1)N(Cc1ccc(C(=O)O)cc1)S(=O)(=O)c1ccc(Cl)cc1` [Example 15, (S)-4-((4-Chloro-N-(1-cyclohexylpropyl)phenylsulfonamido)methyl)benzoic acid] showed a melting point of 147 to 149 °C. The IC50 in series [2] is 0.028 µM. Further, in series [3], the IC50 worked out at 20 µM and the “Notch Luc/Aβ42” value is reported as 715.
`CC[C@@H](C1CCCC1)N(Cc1ccc(C(=O)O)cc1)S(=O)(=O)c1ccc(Cl)cc1` [Example 20, (S)-4-((4-Chloro-N-(1-cyclopentylpropyl)phenylsulfonamido)methyl)benzoic acid] registered a melting point of 67 to 69 °C. The compound also registered an IC50 in series [2] of 0.05 µM. In series [3], the IC50 is 40 µM and 100 µM; the “Notch Luc/Aβ42” value is 1400.
Regarding `CC1CCCCC1N(Cc1ccc(C(=O)O)cc1)S(=O)(=O)c1ccc(C(F)(F)F)nc1` (stereo not shown) [Example 32, 4-((N-(2-Methylcyclohexyl)-6-(trifluoromethyl)pyridine-3-sulfonamido)methyl)benzoic acid], the melting point is 117 to 119 °C. The compound further returned an IC50 in series [2] of 0.0284 µM. For the same compound, in series [3], the IC50 worked out at 4.8 µM and the “Notch Luc/Aβ42” value turned out to be 169.
For `CC1CCCCC1N(Cc1ccc(C(=O)NC(C)(C)C(=O)O)cc1)S(=O)(=O)c1ccc(Cl)cc1` (stereo not shown) [Example 34, 2-(4-((4-Chloro-N-(2-methylcyclohexyl)phenylsulfonamido)methyl)benzamido)-2-methylpropanoic acid] the same measures were 121 to 122 °C, 0.135 µM, 8.09 µM and 60.
For `CC1CCCCC1N(Cc1ccc(C(=O)NC(C)(C)CO)cc1)S(=O)(=O)c1ccc(Cl)cc1` (stereo not shown) [Example 37, 4-((4-Chloro-N-(2-methylcyclohexyl)phenylsulfonamido)methyl)-N-(1-hydroxy-2-methylpropan-2-yl)benzamide], the melting point fell in the range of 116 to 117 °C. The IC50 in series [2] stood at 0.0209 µM. Also, the midpoint of inhibition in series [3], the IC50, lay at 2.54 µM.

The record behind these values is patent US20140243374A1, “Novel Sulfonamides” (The Brigham and Women's Hospital, Inc., priority 2011, published 2014).
